From article PMC12216609, “Inhibitors of eIF1A-ribosome interaction unveil uORF-dependent regulation of translation initiation and antitumor and antiviral effects” (The EMBO Journal, 2025)
“And” between values parts separate entries of the source, which are not always exact repeats. Identical values can stand only once.

The molecules below were run against NSP1 (Severe acute respiratory syndrome coronavirus 2, UniProt P0DTD1) (assay: not given). Conditions: not given.
For `CN(C)CC1CCn2cc(c3ccccc32)C2=C(C(=O)NC2=O)c2cn(c3ccccc23)CCO1` (stereo not shown) [1Ai-5662], the “GFP reporter ratio nsp1/gfp, avg” value was 0.4084, the “GFP reporter ratio nsp1/gfp, rep 1” value was 0.4084 and the “gfp signal, mean of duplicate wells” value was 442. For the same molecule, the “nsp1 signal, mean of duplicate wells” value was 180.5 and the “ratio (nsp1/gfp)” value was 0.408.

The molecules below were run against T1, eIF1A without CTT (Homo sapiens, UniProt P47813) (assay: not given). Conditions: 1Ai conc. 0.25 uM; background-corrected, relative to DMSO or lowest 1Ai concentration; replicate columns.
T1 construct: His-bdSUMO (cleaved yes); made in house; host or cells: E. coli (BL-21)
T1 sequence (P47813 1-114 limits assumed): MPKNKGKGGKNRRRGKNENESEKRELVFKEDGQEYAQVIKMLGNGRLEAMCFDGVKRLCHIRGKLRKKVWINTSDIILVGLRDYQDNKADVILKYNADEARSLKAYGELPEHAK
Assay type: binding
In the case of `CN(C)CC1CCn2cc(c3ccccc32)C2=C(C(=O)NC2=O)c2cn(c3ccccc23)CCO1` (stereo not shown) [1Ai-5662], the “fluorescence ratio, eIF1A Δ CTT” value is reported as 0.8742 and 0.9398.

Same assay, conditions: 1Ai conc. 0.5 uM; background-corrected, relative to DMSO or lowest 1Ai concentration; replicate columns; listed as 5662
For `CN(C)CC1CCn2cc(c3ccccc32)C2=C(C(=O)NC2=O)c2cn(c3ccccc23)CCO1` (stereo not shown) [1Ai-5662], the “fluorescence ratio, eIF1A Δ CTT” value was 0.8855 and 0.8821.

Same assay, conditions: 1Ai conc. 1 uM; background-corrected, relative to DMSO or lowest 1Ai concentration; replicate columns
For `CN(C)CC1CCn2cc(c3ccccc32)C2=C(C(=O)NC2=O)c2cn(c3ccccc23)CCO1` (stereo not shown) [1Ai-5662], the “fluorescence ratio, eIF1A Δ CTT” value was 0.8798 and 0.8003.

Same assay, conditions: 1Ai conc. 2 uM; background-corrected, relative to DMSO or lowest 1Ai concentration; replicate columns
With `CN(C)CC1CCn2cc(c3ccccc32)C2=C(C(=O)NC2=O)c2cn(c3ccccc23)CCO1` (stereo not shown) [1Ai-5662] the “fluorescence ratio, eIF1A Δ CTT” value was 0.8074 and 0.8109.

Same assay, conditions: 1Ai conc. 4 uM; background-corrected, relative to DMSO or lowest 1Ai concentration; replicate columns
`CN(C)CC1CCn2cc(c3ccccc32)C2=C(C(=O)NC2=O)c2cn(c3ccccc23)CCO1` (stereo not shown) [1Ai-5662] was tested, and the “fluorescence ratio, eIF1A Δ CTT” value was 0.7089 and 0.7163.

Same assay, conditions: 1Ai conc. 8 uM; background-corrected, relative to DMSO or lowest 1Ai concentration; replicate columns
`CN(C)CC1CCn2cc(c3ccccc32)C2=C(C(=O)NC2=O)c2cn(c3ccccc23)CCO1` (stereo not shown) [1Ai-5662] was tested, and the “fluorescence ratio, eIF1A Δ CTT” value was 0.4859 and 0.6001.

Same assay, conditions: 1Ai conc. 16 uM; background-corrected, relative to DMSO or lowest 1Ai concentration; replicate columns
`CN(C)CC1CCn2cc(c3ccccc32)C2=C(C(=O)NC2=O)c2cn(c3ccccc23)CCO1` (stereo not shown) [1Ai-5662] was tested, and the “fluorescence ratio, eIF1A Δ CTT” value was 0.4269 and 0.4563.

Same assay, conditions: 1Ai conc. 32 uM; background-corrected, relative to DMSO or lowest 1Ai concentration; replicate columns
With `CN(C)CC1CCn2cc(c3ccccc32)C2=C(C(=O)NC2=O)c2cn(c3ccccc23)CCO1` (stereo not shown) [1Ai-5662] the “fluorescence ratio, eIF1A Δ CTT” value was 0.2954 and 0.3164.

Same assay, conditions: 1Ai conc. 64 uM; background-corrected, relative to DMSO or lowest 1Ai concentration; replicate columns
In the case of `CN(C)CC1CCn2cc(c3ccccc32)C2=C(C(=O)NC2=O)c2cn(c3ccccc23)CCO1` (stereo not shown) [1Ai-5662], the “fluorescence ratio, eIF1A Δ CTT” value is reported as 0.164 and 0.1518.

Same assay, conditions: 1Ai conc. 256 uM; background-corrected, relative to DMSO or lowest 1Ai concentration; replicate columns
For `CN(C)CC1CCn2cc(c3ccccc32)C2=C(C(=O)NC2=O)c2cn(c3ccccc23)CCO1` (stereo not shown) [1Ai-5662], the “fluorescence ratio, eIF1A Δ CTT” value was 0.1171 and 0.08567.

Same assay, conditions: eIF1A Δ CTT; from the titration data; read-out: IC50 (eIF1A Δ CTT titration block)
Molecule `CN(C)CC1CCn2cc(c3ccccc32)C2=C(C(=O)NC2=O)c2cn(c3ccccc23)CCO1` (stereo not shown) [1Ai-5662] has an IC50 of 12.4 µM.

Same assay, conditions: summary table; fluorescence binding assay; read-out: IC50 concentration (µM), CTT truncation
`CN(C)CC1CCn2cc(c3ccccc32)C2=C(C(=O)NC2=O)c2cn(c3ccccc23)CCO1` (stereo not shown) [1Ai-5662] was tested, and the IC50 was 12.4 µM.

These molecules were tested against T2, eIF1A-RPS10 interaction (Homo sapiens, UniProt P46783+P47813) (assay: Split-Renilla luciferase eIF1A-RPS10 interaction screen, dose-response). Conditions: summary table; read-out: IC50 concentration (µM), IC50 screen.
T2 construct: made in house; host or cells: E. coli BL21 (PRSFduet); unpurified lysate supernatant
T2 sequence (P47813 whole entry, one chain of several): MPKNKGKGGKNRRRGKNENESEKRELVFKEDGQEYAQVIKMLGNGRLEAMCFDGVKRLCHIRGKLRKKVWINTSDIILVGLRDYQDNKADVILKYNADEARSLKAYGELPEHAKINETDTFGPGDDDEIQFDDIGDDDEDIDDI
Assay type: biochemical
Method in brief: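 Reconstituted Renilla luciferase activity reports eIF1A-RPS10 binding; loss indicates disruption by compound. Recombinant fusions (eIF1A C-terminus to N-RL; RPS10-ΔN-Renilla) expressed in E. coli BL21, used as sonicated supernatants in Tris/KCl/EDTA buffer, with unfused split-RL halves as controls.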
`CN(C)CC1CCn2cc(c3ccccc32)C2=C(C(=O)NC2=O)c2cn(c3ccccc23)CCO1` (stereo not shown) [1Ai-5662] was tested, and the IC50 was 25 µM.

What follows are molecules tested against T3, eIF1A without NTT (Homo sapiens, UniProt P47813) (assay: Fluorescence binding assay with NTT-truncated eIF1A). Conditions: 1Ai conc. 0.25 uM; background-corrected, relative to DMSO or lowest 1Ai concentration; replicate columns.
T3 construct: His-bdSUMO (cleaved yes); made in house; host or cells: E. coli (BL-21)
T3 sequence (P47813 31-144 limits assumed): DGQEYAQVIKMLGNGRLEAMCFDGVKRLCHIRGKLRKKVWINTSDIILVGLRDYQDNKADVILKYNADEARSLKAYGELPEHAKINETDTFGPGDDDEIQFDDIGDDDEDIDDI
For `CN(C)CC1CCn2cc(c3ccccc32)C2=C(C(=O)NC2=O)c2cn(c3ccccc23)CCO1` (stereo not shown) [1Ai-5662], the “fluorescence ratio, eIF1A Δ NTT” value was 0.839 and 0.8682 and 1.

Same assay, conditions: 1Ai conc. 0.5 uM; background-corrected, relative to DMSO or lowest 1Ai concentration; replicate columns
For `CN(C)CC1CCn2cc(c3ccccc32)C2=C(C(=O)NC2=O)c2cn(c3ccccc23)CCO1` (stereo not shown) [1Ai-5662], the “fluorescence ratio, eIF1A Δ NTT” value was 1.068.

Same assay, conditions: 1Ai conc. 0.5 uM; background-corrected, relative to DMSO or lowest 1Ai concentration; replicate columns; listed as 5662
In the case of `CN(C)CC1CCn2cc(c3ccccc32)C2=C(C(=O)NC2=O)c2cn(c3ccccc23)CCO1` (stereo not shown) [1Ai-5662], the “fluorescence ratio, eIF1A Δ NTT” value is reported as 0.9101 and 0.8837.

Same assay, conditions: 1Ai conc. 1 uM; background-corrected, relative to DMSO or lowest 1Ai concentration; replicate columns
In the case of `CN(C)CC1CCn2cc(c3ccccc32)C2=C(C(=O)NC2=O)c2cn(c3ccccc23)CCO1` (stereo not shown) [1Ai-5662], the “fluorescence ratio, eIF1A Δ NTT” value is reported as 0.9026 and 0.9044 and 1.056.

Same assay, conditions: 1Ai conc. 2 uM; background-corrected, relative to DMSO or lowest 1Ai concentration; replicate columns
In the case of `CN(C)CC1CCn2cc(c3ccccc32)C2=C(C(=O)NC2=O)c2cn(c3ccccc23)CCO1` (stereo not shown) [1Ai-5662], the “fluorescence ratio, eIF1A Δ NTT” value is reported as 0.8689 and 0.9922 and 1.016.

Same assay, conditions: 1Ai conc. 4 uM; background-corrected, relative to DMSO or lowest 1Ai concentration; replicate columns
In the case of `CN(C)CC1CCn2cc(c3ccccc32)C2=C(C(=O)NC2=O)c2cn(c3ccccc23)CCO1` (stereo not shown) [1Ai-5662], the “fluorescence ratio, eIF1A Δ NTT” value is reported as 0.8614 and 0.9638 and 0.988.

Same assay, conditions: 1Ai conc. 8 uM; background-corrected, relative to DMSO or lowest 1Ai concentration; replicate columns
`CN(C)CC1CCn2cc(c3ccccc32)C2=C(C(=O)NC2=O)c2cn(c3ccccc23)CCO1` (stereo not shown) [1Ai-5662] was tested, and the “fluorescence ratio, eIF1A Δ NTT” value was 0.8277 and 0.845 and 0.9679.

Same assay, conditions: 1Ai conc. 16 uM; background-corrected, relative to DMSO or lowest 1Ai concentration; replicate columns
With `CN(C)CC1CCn2cc(c3ccccc32)C2=C(C(=O)NC2=O)c2cn(c3ccccc23)CCO1` (stereo not shown) [1Ai-5662] the “fluorescence ratio, eIF1A Δ NTT” value was 0.6816 and 0.8424 and 0.9197.

Same assay, conditions: 1Ai conc. 32 uM; background-corrected, relative to DMSO or lowest 1Ai concentration; replicate columns
With `CN(C)CC1CCn2cc(c3ccccc32)C2=C(C(=O)NC2=O)c2cn(c3ccccc23)CCO1` (stereo not shown) [1Ai-5662] the “fluorescence ratio, eIF1A Δ NTT” value was 0.5918 and 0.6641 and 0.7952.

Same assay, conditions: 1Ai conc. 64 uM; background-corrected, relative to DMSO or lowest 1Ai concentration; replicate columns
`CN(C)CC1CCn2cc(c3ccccc32)C2=C(C(=O)NC2=O)c2cn(c3ccccc23)CCO1` (stereo not shown) [1Ai-5662] was tested, and the “fluorescence ratio, eIF1A Δ NTT” value was 0.4307 and 0.4574 and 0.6064.

Same assay, conditions: 1Ai conc. 256 uM; background-corrected, relative to DMSO or lowest 1Ai concentration; replicate columns
With `CN(C)CC1CCn2cc(c3ccccc32)C2=C(C(=O)NC2=O)c2cn(c3ccccc23)CCO1` (stereo not shown) [1Ai-5662] the “fluorescence ratio, eIF1A Δ NTT” value was 0.2846 and 0.3101 and 0.4458.

Same assay, conditions: eIF1A Δ NTT; from the titration data; read-out: IC50 (eIF1A Δ NTT titration block)
`CN(C)CC1CCn2cc(c3ccccc32)C2=C(C(=O)NC2=O)c2cn(c3ccccc23)CCO1` (stereo not shown) [1Ai-5662] was tested, and the IC50 was 37.9 µM.

Same assay, conditions: summary table; fluorescence binding assay; read-out: IC50 concentration (µM), NTT truncation
Molecule `CN(C)CC1CCn2cc(c3ccccc32)C2=C(C(=O)NC2=O)c2cn(c3ccccc23)CCO1` (stereo not shown) [1Ai-5662] has an IC50 of 37.9 µM.
